Earlier results as cited in patent publication US6620433B2, “Dispersible and soluble galenic paracetamol formulation, method for its preparation and its applications” (Laboratorios Belmac, S.A., priority 2000, dated 2003).

Key:
[1] = test system: mice; conditions: interperitoneal administration

CC(=O)Nc1ccc(O)cc1 [Paracetamol, N-(4-hydroxyphenyl) acetamide]
LD50 in mice [1]: 500 mg/kg
solubility in cold water (cold water): barely soluble
solubility in ether (ether): barely soluble
solubility in methanol, ethanol, dimethylformamide, ethylene dichloride, acetone and ethyl acetate (organic solvents): soluble
solubility in petroleum ether, pentane and benzene (petroleum ether, pentane, benzene): practically insoluble
